The values that follow come from patent US20230052298A1, “LACTIC ACID BACTERIUM FERMENTATION PROMOTER” (MEIJI CO., LTD., priority 2019, published 2023).

One assay has as its system L. rhamnosus. The assay is described as follows: Test Example 5: organic acid concentrations after fermentation. It is filed as cell-based, Lactobacillus rhamnosus. The note with it: 1 mM added. As to the method:
(§1) The measurement of the organic acid concentration after the completion of fermentation was carried out as follows. An aliquot of 0.4 g of the fermentate obtained (fermented milk) was diluted by 2-fold with pure water, 20 μL of Carrez's Reagent I (53.5% (w/v) zinc sulfate) was added thereto and the mixture was vortexed, and 20 μl of Carrez's Reagent II (17.2% (w/v) potassium ferrocyanide) was added thereto and the mixture was vortexed. The resulting mixture was centrifuged at 4° C., 20620 g for 10 minutes, and the supernatant was filtered through a 0.22 μm filter and the filtrate was analyzed under the conditions shown in Table 2. [table] The measurement of the organic acid concentration after the completion of fermentation by L. rhamnosus and L. salivarius in Test Example 3 or 4 was carried out in the same manner as in Test Example 2-1. The addition of malic acid or fumaric acid promoted production of succinic acid by L. rhamnosus and L. salivarius.

In assay [1] the test system is L. delbrueckii subsp. bulgaricus 2038. Kind of assay: Test Example 2-1: organic acid concentrations after fermentation (HPLC). It is filed as cell-based, Lactobacillus delbrueckii subsp. bulgaricus. The settings on record: strain 2038. As to the method: The fermentation was carried out using a fermentation medium (raw material milk). The fermentation medium was prepared by adding formic acid to the 10% reduced skim milk medium so as to give a final concentration of 1 mM, and then sterilizing the mixture at 95° C., and was used. […] In the above fermentation medium, a lactic acid bacterial starter of […] was inoculated at 0.5% (with respect to the amount of fermentation medium), statically cultured at 40° C., and fermented. The fermentation time was the time required for the medium to reach pH 4.6. The measurement of the organic acid concentration after the completion of fermentation was carried out as follows. An aliquot of 0.4 g of the fermentate obtained (fermented milk) was diluted by 2-fold with pure water, 20 μL of Carrez's Reagent I (53.5% (w/v) zinc sulfate) was added thereto and the mixture was vortexed, and 20 μl of Carrez's Reagent II (17.2% (w/v) potassium ferrocyanide) was added thereto and the mixture was vortexed. The resulting mixture was centrifuged at 4° C., 20620 g for 10 minutes, and the supernatant was filtered through a 0.22 μm filter and the filtrate was analyzed under the conditions shown in Table 2.

The next assay relates to L. salivarius. The assay is described as follows: Test Example 5: organic acid concentrations after fermentation. It counts as cell-based, Lactobacillus salivarius. The settings on record: 1 mM added. The procedure:
as §1

Take `O=C(O)/C=C/C(=O)O` [Fumaric acid, fumaric acid]: the “Concentration of succinic acid” value in the assay on L. rhamnosus is on record as 1.39 mM. For the same compound, in assay [1] (1 mM added), the “Concentration of fumaric acid” value is 0.00 mM and the “Concentration of malic acid” value worked out at 0.00 mM. In the assay with L. salivarius, the “Concentration of fumaric acid” value came to 0.62 mM, the “Concentration of malic acid” value was 0.51 mM and the “Concentration of succinic acid” value is listed as 0.29 mM.

As to `O=C(O)CC(O)C(=O)O` (stereo not drawn) [Malic acid, malic acid], the “Concentration of fumaric acid” value in assay [1] (1 mM added) came out at 0.00 mM; in assay [1] (10 mM added), 0.03 mM; in assay [1] (50 mM added), 0.21 mM; in the assay on L. salivarius, 0.35 mM. The “Concentration of malic acid” value in assay [1] (1 mM added) was determined as 0.00 mM; in assay [1] (10 mM added), 4.27 mM; in assay [1] (50 mM added) it was 42.05 mM; in the assay with L. salivarius, 0.75 mM. Moreover, the “Concentration of succinic acid” value in assay [1] (1 mM added) is 1.94 mM; in assay [1] (10 mM added) it was 5.78 mM; in assay [1] (50 mM added) it was 9.84 mM; with L. salivarius, 0.28 mM.
